Measured values: patent US20240360126A1, “PYRAZOLO[3,4-B]PYRIDINE COMPOUNDS FOR THE TREATMENT OF AUTOIMMUNE DISEASE” (Hoffmann-La Roche Inc., priority 2021, published 2024)
pIC50: −log10 of the molar value.

The molecules below were run against T1, human TLR7 (Homo sapiens, UniProt Q9NYK1) (assay: HEK293-Blue-hTLR-7 cells assay). Settings: HEK293-Blue-hTLR7 cells, R848 stimulation, 20 hrs; read-out: HEK/hTLR7 IC50.
T1 construct: host or cells: HEK293 (HEK-Blue hTLR7)
T1 sequence (Q9NYK1 27-1049): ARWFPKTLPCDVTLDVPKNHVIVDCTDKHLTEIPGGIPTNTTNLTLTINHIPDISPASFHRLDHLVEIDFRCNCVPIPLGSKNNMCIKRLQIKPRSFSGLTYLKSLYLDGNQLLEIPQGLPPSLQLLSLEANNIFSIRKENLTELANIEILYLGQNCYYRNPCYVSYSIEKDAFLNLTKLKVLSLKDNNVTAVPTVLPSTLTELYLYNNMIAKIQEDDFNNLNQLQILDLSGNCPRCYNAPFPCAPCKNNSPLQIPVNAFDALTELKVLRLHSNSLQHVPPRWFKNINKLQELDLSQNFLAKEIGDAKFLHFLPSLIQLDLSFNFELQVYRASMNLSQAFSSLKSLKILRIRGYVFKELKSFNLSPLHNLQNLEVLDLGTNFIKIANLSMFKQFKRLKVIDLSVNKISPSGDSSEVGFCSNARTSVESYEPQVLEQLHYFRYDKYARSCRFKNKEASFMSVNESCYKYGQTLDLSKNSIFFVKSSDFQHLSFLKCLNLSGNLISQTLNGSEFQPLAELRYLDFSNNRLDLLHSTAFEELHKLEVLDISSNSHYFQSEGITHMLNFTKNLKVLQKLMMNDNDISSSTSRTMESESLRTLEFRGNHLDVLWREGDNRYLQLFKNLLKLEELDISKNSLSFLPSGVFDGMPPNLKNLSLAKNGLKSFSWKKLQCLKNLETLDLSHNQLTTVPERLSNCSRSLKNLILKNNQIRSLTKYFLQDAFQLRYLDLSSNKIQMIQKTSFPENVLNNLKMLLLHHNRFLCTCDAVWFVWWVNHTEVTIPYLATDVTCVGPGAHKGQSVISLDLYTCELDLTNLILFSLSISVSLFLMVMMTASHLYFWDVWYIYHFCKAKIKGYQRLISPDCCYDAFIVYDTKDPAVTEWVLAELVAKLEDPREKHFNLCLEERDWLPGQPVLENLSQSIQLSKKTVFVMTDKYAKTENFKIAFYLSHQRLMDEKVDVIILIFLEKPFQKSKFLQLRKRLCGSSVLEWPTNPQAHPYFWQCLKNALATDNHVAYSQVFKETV
Assay type: cell-based
From the text: A stable HEK293-Blue-hTLR-7 cell line was purchased from InvivoGen (Cat. #: hkb-htlr7, San Diego, California, USA). These cells were originally designed for studying the stimulation of human TLR7 by monitoring the activation of NF-κB. A SEAP (secreted embryonic alkaline phosphatase) reporter gene was placed under the control of the IFN-β minimal promoter fused to five NF-κB and AP-1-binding sites. The SEAP was induced by activating NF-κB and AP-1 via stimulating HEK-Blue hTLR7 cells with TLR7 ligands. Therefore the reporter expression was declined by TLR7 antagonist under the stimulation of a ligand, such as R848 (Resiquimod), for incubation of 20 hrs. The cell culture supernatant SEAP reporter activity was determined using QUANTI-Blue™ kit (Cat. #: rep-qbl, Invivogen, San Diego, Ca, USA) at a wavelength of 640 nm, a detection medium that turns purple or blue in the presence of alkaline phosphatase.
HEK293-Blue-hTLR7 cells were incubated at a density of 250,000-450,000 cells/mL in a volume of 170 μL in a 96-well plate in Dulbecco's Modified Eagle's medium (DMEM) containing 4.5 g/L glucose, 50 U/mL penicillin, […] streptomycin, […] Normocin, […] L-glutamine, 10% […] heat-inactivated fetal bovine serum with addition of 20 μL test compound in a serial dilution in the presence of final DMSO at 1% and 10 μL of 20 μM R848 in above DMEM, perform incubation under 37° C. in a CO2 incubator for 20 hrs. Then 20 μL of the supernatant from each well was incubated with 180 μL Quanti-blue substrate solution at 37° C. for 2 hrs and the absorbance was read at […] using a spectrophotometer. The signaling pathway that TLR7 activation leads to downstream NF-κB activation has been widely accepted, and therefore similar reporter assay was modified for evaluating TLR7 antagonist.
In the case of `COC[C@H]1CN(c2cnc([C@@H]3CCN(c4cc(C)nc5c4cnn5C)C[C@H]3C)c(C)c2)CCN1` [Example 29, 4-[(3S,4R)-4-[5-[(3R)-3-(methoxymethyl)piperazin-1-yl]-3-methyl-2-pyridyl]-3-methyl-1-piperidyl]-1,6-dimethyl-pyrazolo[3,4-b]pyridine], the pIC50 was 8.30. `Cc1cc(N2CC[C@@H](c3ncc(N4CC[C@@H](N)[C@H](F)C4)cc3C)[C@H](C)C2)c2cnn(C)c2n1` [Example 31, (3R,4R)-1-[6-[(3S,4R)-1-(1,6-dimethylpyrazolo[3,4-b]pyridin-4-yl)-3-methyl-4-piperidyl]-5-methyl-3-pyridyl]-3-fluoro-piperidin-4-amine] gave a pIC50 of 8.30. Molecule `Cc1cc(N2CC[C@@H](c3ncc(N4CC(C)(N)C4)cc3C)[C@H](C)C2)c2cnn(C)c2n1` [Example 32, 1-[6-[(3S,4R)-1-(1,6-dimethylpyrazolo[3,4-b]pyridin-4-yl)-3-methyl-4-piperidyl]-5-methyl-3-pyridyl]-3-methyl-azetidin-3-amine] has a pIC50 of 8.10. `Cc1cc(N2CC[C@@H](c3ncc(N4C[C@H]5NCCO[C@@H]5C4)cc3C)[C@H](C)C2)c2cnn(C)c2n1` [Example 33, (4aR,7aR)-6-[6-[(3S,4R)-1-(1,6-dimethylpyrazolo[3,4-b]pyridin-4-yl)-3-methyl-4-piperidyl]-5-methyl-3-pyridyl]-3,4,4a,5,7,7a-hexahydro-2H-pyrrolo[3,4-b][1,4]oxazine] gave a pIC50 of 7.96. In the case of `Cc1cc(N2CC[C@@H](c3ccc(N4CCNCC4)cn3)[C@H](C)C2)c2cnn(C)c2n1` [Example 34, 1,6-dimethyl-4-[(3S,4R)-3-methyl-4-(5-piperazin-1-yl-2-pyridyl)-1-piperidyl]pyrazolo[3,4-b]pyridine], the pIC50 was 7.09. With `Cc1cc(N2CC[C@H](c3ccc(N4CCNCC4)cn3)[C@@H](C)C2)c2cnn(C)c2n1` [Example 35, 1,6-dimethyl-4-[(3R,4S)-3-methyl-4-(5-piperazin-1-yl-2-pyridyl)-1-piperidyl]pyrazolo[3,4-b]pyridine] the pIC50 was 8.22. For `CO[C@@H]1CN(c2ccc([C@H]3CCN(c4cc(C)nc5c4cnn5C)C[C@@H]3C)nc2)C[C@H]1N` [Example 36, (3R,4R)-1-[6-[(3R,4S)-1-(1,6-dimethylpyrazolo[3,4-b]pyridin-4-yl)-3-methyl-4-piperidyl]-3-pyridyl]-4-methoxy-pyrrolidin-3-amine], the pIC50 was 7.74. `COC[C@H]1CN(c2ccc([C@H]3CCN(c4cc(C)nc5c4cnn5C)C[C@@H]3C)nc2)CCN1` [Example 37, 4-[(3R,4S)-4-[5-[(3R)-3-(methoxymethyl)piperazin-1-yl]-2-pyridyl]-3-methyl-1-piperidyl]-1,6-dimethyl-pyrazolo[3,4-b]pyridine] showed a pIC50 of 8.05. `Cc1cc(N2CC[C@H](c3ccc(N4CC5(CNCCO5)C4)cn3)[C@@H](C)C2)c2cnn(C)c2n1` [Example 38, 2-[6-[(3R,4S)-1-(1,6-dimethylpyrazolo[3,4-b]pyridin-4-yl)-3-methyl-4-piperidyl]-3-pyridyl]-5-oxa-2,8-diazaspiro[3.5]nonane] was tested, and the pIC50 was 7.89. With `CO[C@H]1CN(c2ccc([C@H]3CCN(c4cc(C)nc5c4cnn5C)C[C@@H]3C)nc2)CC[C@@H]1N` [Example 39, (3S,4S)-1-[6-[(3R,4S)-1-(1,6-dimethylpyrazolo[3,4-b]pyridin-4-yl)-3-methyl-4-piperidyl]-3-pyridyl]-3-methoxy-piperidin-4-amine] the pIC50 was 7.92. `Cc1cc(N2CC[C@H](c3ccc(N4CCOC[C@@H](N)C4)cn3)[C@@H](C)C2)c2cnn(C)c2n1` [Example 40, (6S)-4-[6-[(3R,4S)-1-(1,6-dimethylpyrazolo[3,4-b]pyridin-4-yl)-3-methyl-4-piperidyl]-3-pyridyl]-1,4-oxazepan-6-amine] showed a pIC50 of 8.05. `Cc1cc(N2CC[C@H](c3ccc(N4CC[C@@H](N)[C@H](F)C4)cn3)[C@@H](C)C2)c2cnn(C)c2n1` [Example 41, (3R,4R)-1-[6-[(3R,4S)-1-(1,6-dimethylpyrazolo[3,4-b]pyridin-4-yl)-3-methyl-4-piperidyl]-3-pyridyl]-3-fluoro-piperidin-4-amine] showed a pIC50 of 8.22. For `Cc1cc(N2CC[C@H](c3ccc(N4CC(C)(N)C4)cn3)[C@@H](C)C2)c2cnn(C)c2n1` [Example 43, 1-[6-[(3R,4S)-1-(1,6-dimethylpyrazolo[3,4-b]pyridin-4-yl)-3-methyl-4-piperidyl]-3-pyridyl]-3-methyl-azetidin-3-amine], the pIC50 was 7.80.
